One assay concerns the target Adenosylhomocysteinase (Mus musculus, UniProt P50247). Briefly: In vitro inhibitory concentration against purified S-Adenosyl-homocysteine hydrolase isolated from murine L929 cells.
Assay [1] has as its system Trypanosoma brucei. Briefly: In vitro inhibitory concentration against Trypanosoma brucei LAB 110 EATRO test strain. In kind it is functional, organism-based.
In assay [2] the test system is Trypanosoma brucei. Briefly: In vitro inhibitory concentration against Trypanosoma brucei rhodesiense strain KETRI 243. In kind it is functional, organism-based.
For assay [3], the system named is Trypanosoma brucei. Briefly: In vitro inhibitory concentration against Trypanosoma brucei rhodesiense strain KETRI 243-As-103. In kind it is functional, organism-based.
For assay [4], the system named is Trypanosoma brucei. Briefly: In vitro inhibitory concentration against Trypanosoma brucei rhodesiense strain KETRI 269. In kind it is functional, organism-based.

Sequence of Adenosylhomocysteinase (P50247 whole entry): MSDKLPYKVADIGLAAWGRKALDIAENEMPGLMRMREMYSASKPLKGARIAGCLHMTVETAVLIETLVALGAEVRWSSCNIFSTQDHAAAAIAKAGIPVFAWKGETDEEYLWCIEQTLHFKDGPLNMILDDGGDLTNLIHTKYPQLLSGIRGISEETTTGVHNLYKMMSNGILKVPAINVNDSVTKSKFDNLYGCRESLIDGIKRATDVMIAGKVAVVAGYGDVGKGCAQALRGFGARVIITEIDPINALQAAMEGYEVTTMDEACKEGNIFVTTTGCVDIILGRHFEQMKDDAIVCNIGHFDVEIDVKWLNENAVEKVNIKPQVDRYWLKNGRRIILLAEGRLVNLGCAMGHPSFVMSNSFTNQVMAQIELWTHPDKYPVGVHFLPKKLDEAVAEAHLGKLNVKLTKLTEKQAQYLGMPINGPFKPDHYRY

For `Nc1ncnc2c1ccn2[C@H]1C[C@@H](O)[C@H](O)[C@@H]1O`, the IC50 (as a rule, the concentration needed to halve the response being measured) was > 500000 nM at Adenosylhomocysteinase; 165 nM in the assay with Trypanosoma brucei [1]; 165 nM in the assay on Trypanosoma brucei [2]; 5300 nM with Trypanosoma brucei [3]; 165 nM with Trypanosoma brucei [4].

Consider `Nc1ncnc2c1ccn2[C@@H]1C[C@H](O)[C@@H](O)[C@H]1O`, for which the IC50 on Adenosylhomocysteinase was > 500000 nM.

The values above are taken from ChEMBL document CHEMBL1129947, “(+)-7-Deaza-5'-noraristeromycin as an anti-trypanosomal agent” (J Med Chem, 1997).
